Experimental findings from BindingDB's records for doi:10.1074/jbc.M409068200 (Genentech, 2005) are described below.

pKi: −log10 of the molar value. Some results are limits rather than exact numbers.

Common to all, as to assay: Serine Protease Inhibition Assay
What all share (conditions): pH 7.8; 22 °C

In one assay the target is Coagulation factor X (Homo sapiens, UniProt P00742). How it is done: (§1) The enzyme reactions were initiated by the addition of substrate, and the color developed from the release of p-nitroanilide from each chromogenic substrate was monitored continuously for 5 min at 405 nm on a microtiter plate reader. […] The apparent Ki values were then calculated according to the Cheng-Prusoff equation: Ki = IC50/1 + [S]/Km.

The target in the next assay is Plasma kallikrein (Homo sapiens, UniProt P03952). How it is done:
as §1

The target in a further assay is Plasminogen (Homo sapiens, UniProt P00747). As for the experimental part:
as §1

The target in a further assay is Prothrombin (Homo sapiens, UniProt P00734). How it is done: as §1
A further assay has as its target T1, Serine protease 1 (Bos taurus, UniProt P00760).
T1 sequence (P00760 whole entry): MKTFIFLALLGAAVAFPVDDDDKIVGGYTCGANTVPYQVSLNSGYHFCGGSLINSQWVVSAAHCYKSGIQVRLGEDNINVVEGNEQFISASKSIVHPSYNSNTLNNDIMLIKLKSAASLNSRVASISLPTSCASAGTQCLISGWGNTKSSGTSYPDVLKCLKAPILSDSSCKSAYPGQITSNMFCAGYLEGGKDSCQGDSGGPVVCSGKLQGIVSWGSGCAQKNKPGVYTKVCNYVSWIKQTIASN
How it is done:
as §1

The target of assay [1] is Tissue-type plasminogen activator (Homo sapiens, UniProt P00750). How it is done:
as §1

Assay [2] has as its target Urokinase-type plasminogen activator (Homo sapiens, UniProt P00749). As for the experimental part: as §1
The target in assay [3] is Vitamin K-dependent protein C (Homo sapiens, UniProt P04070). As for the experimental part: as §1

The term pKi denotes the Ki on a negative log10 scale, so that one unit is a factor of ten. Lower therefore signals a large Ki.

Coagulation factor X, sequence (P00742 41-179 limits assumed): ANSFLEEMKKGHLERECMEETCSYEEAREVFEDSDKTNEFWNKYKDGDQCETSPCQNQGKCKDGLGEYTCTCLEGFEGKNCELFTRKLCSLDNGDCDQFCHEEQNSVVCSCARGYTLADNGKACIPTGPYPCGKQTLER
Coagulation factor X, sequence (P00742 235-488 limits assumed): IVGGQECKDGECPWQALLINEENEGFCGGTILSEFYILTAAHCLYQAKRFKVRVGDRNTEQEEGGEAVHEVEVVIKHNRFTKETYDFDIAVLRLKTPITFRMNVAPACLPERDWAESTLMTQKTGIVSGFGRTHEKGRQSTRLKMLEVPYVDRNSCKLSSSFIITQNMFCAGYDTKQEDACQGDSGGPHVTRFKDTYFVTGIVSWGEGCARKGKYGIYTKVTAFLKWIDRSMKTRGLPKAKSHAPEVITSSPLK
Plasminogen, sequence (P00747 97-580 limits assumed): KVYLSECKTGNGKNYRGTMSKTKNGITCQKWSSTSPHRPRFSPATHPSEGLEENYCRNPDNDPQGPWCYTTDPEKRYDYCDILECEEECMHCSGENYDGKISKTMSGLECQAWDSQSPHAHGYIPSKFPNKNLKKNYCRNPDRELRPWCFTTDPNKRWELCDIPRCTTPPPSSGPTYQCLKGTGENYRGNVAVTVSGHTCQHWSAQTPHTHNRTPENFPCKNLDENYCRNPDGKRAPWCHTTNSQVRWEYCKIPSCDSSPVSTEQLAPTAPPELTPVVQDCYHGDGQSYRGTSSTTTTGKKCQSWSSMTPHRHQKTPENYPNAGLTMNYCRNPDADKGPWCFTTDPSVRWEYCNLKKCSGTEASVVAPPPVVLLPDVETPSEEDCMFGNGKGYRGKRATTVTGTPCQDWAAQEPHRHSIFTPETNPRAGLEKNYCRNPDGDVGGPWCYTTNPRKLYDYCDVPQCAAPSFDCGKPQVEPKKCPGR
Plasminogen, sequence (P00747 581-810 limits assumed): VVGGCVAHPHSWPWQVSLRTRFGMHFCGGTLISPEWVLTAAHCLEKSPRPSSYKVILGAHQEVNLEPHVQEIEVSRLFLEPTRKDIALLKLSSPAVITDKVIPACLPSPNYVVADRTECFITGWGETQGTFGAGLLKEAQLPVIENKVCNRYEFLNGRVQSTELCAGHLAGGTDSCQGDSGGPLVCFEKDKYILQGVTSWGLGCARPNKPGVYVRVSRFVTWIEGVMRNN
Vitamin K-dependent protein C, sequence (P04070 43-197 limits assumed): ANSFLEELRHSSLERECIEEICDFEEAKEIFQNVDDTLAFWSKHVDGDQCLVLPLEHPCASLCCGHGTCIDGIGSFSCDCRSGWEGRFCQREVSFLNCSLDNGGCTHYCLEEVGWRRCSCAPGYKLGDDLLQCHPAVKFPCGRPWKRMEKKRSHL
Vitamin K-dependent protein C, sequence (P04070 212-461 limits assumed): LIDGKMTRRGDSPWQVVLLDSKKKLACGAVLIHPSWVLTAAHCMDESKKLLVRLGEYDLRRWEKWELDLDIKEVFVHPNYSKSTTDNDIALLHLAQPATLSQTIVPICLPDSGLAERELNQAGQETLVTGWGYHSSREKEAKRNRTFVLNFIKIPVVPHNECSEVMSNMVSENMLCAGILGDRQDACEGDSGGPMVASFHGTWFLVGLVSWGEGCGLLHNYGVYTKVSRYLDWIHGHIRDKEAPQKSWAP
Tissue-type plasminogen activator, sequence (P00750 whole entry): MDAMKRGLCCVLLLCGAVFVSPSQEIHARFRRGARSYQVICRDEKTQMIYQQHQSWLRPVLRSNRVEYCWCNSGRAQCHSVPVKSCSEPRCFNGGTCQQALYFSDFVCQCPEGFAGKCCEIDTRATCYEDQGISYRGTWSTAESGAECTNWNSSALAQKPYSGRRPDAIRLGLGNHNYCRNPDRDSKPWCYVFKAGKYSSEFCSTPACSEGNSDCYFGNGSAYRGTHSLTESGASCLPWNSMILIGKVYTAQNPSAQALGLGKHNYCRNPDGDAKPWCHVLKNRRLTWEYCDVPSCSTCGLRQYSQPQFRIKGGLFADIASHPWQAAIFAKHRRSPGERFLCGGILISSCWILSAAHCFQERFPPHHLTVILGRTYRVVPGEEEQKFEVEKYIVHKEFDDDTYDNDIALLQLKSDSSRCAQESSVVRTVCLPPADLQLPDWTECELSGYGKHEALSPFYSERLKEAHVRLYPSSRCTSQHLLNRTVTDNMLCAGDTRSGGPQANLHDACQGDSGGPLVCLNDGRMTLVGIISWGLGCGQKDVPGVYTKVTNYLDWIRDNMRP
Plasma kallikrein, sequence (P03952 20-390 limits assumed): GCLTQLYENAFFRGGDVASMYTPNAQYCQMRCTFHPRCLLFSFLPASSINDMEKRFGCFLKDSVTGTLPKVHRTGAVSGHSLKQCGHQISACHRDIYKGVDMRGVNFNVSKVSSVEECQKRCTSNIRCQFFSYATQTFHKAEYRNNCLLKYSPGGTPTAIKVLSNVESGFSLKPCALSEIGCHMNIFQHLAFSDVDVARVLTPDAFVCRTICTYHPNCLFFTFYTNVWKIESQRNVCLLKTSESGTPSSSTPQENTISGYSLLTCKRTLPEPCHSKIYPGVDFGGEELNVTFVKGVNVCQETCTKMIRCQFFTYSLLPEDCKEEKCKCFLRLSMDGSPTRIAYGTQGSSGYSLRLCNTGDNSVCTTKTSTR
Plasma kallikrein, sequence (P03952 391-638 limits assumed): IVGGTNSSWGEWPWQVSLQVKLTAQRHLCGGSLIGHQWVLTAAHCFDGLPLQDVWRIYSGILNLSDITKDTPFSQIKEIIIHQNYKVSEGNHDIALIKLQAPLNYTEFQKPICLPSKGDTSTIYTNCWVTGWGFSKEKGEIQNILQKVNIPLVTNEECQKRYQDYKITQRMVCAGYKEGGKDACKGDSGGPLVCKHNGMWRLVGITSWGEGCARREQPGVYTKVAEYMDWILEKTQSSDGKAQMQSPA

In the case of `CCOc1cc(OCC)c(F)c([C@@H](Nc2ccc(C(=N)N)c(O)c2)C(=O)NS(=O)(=O)c2cccc(N)c2)c1` [(2R)-N-[(3-aminobenzene)sulfonyl]-2-[(4-carbamimidoyl-3-hydroxyphenyl)amino]-2-(3,5-diethoxy-2-fluorophenyl)acetamide], the pKi at Coagulation factor X is less than 5.46; on Plasma kallikrein, 6.94; at Plasminogen, 5.92; at Prothrombin it was 5.44; at Serine protease 1 it was 5.40; in assay [1] it was less than 5.41. The values for the pKi in assay [2] and in assay [3] were less than 5.47 and 7.06, respectively.
